# According to PubChem BioAssay AID608 (Sanford-Burnham Center for Chemical Genomics, 2007):
# Active and inactive are the calls of the source. How the calls were made is not given here.
# Molecular target: Peptidyl-prolyl cis-trans isomerase FKBP1A (Homo sapiens) (UniProt P62942)
# Assay: FKBP12 binders, biophysical, NMR detection (AID 608)
# Conditions: NMR binding, purified FKBP12
# Peptidyl-prolyl cis-trans isomerase FKBP1A (Homo sapiens), sequence (P62942 whole entry, looked up): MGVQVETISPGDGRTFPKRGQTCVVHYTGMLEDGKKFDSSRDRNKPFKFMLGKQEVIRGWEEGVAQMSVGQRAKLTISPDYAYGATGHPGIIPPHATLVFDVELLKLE
row,SMILES,Kd
1,OC1CCN(Cc2ccc[nH]2)CC1,> 4 mM (inactive)
2,OC[C@H]1O[C@@H](n2cnc3c(NCc4ccco4)ncnc32)[C@H](O)[C@@H]1O,> 4 mM (inactive)
3,Nc1ccc(S(=O)(=O)N2CCOCC2)cc1,> 4 mM (inactive)
4,CC1=C2C(=CO[C@H](C)[C@H]2C)C(=O)C(C(=O)O)=C1O,> 4 mM (inactive)
5,CN1CCn2c1nc(N1CCCCC1)nc2=O,> 4 mM (inactive)
6,Cc1cc(NC(=O)c2ocnc2C)no1,> 4 mM (inactive)
7,Cc1oc(-c2ccccc2)cc1C(=O)O,> 4 mM (inactive)
8,c1ccc(Cn2cccc2)nc1,> 4 mM (inactive)
9,O=C(CCc1ccc(O)cc1)c1c(O)cc(O)cc1O[C@@H]1O[C@H](CO)[C@@H](O)[C@H](O)[C@H]1O,> 4 mM (inactive)
10,Cc1cc(C)n2c(SCc3cccs3)nnc2n1,> 4 mM (inactive)
11,O=C(Nc1cccnc1)c1c(F)cccc1F,> 4 mM (inactive)
12,O=C(O)c1cccnc1,> 4 mM (inactive)
13,Oc1ccc([C@H]2Oc3cc(O)cc(O)c3C[C@H]2O)cc1,> 4 mM (inactive)
14,Cc1onc(-c2c(F)cccc2Cl)c1C(N)=O,> 4 mM (inactive)
15,O=C(O)CCC(=O)Nc1nnc(C(F)(F)F)s1,> 4 mM (inactive)
16,CN1C2CCC1CC(OC(=O)C(CO)c1ccccc1)C2 (configuration not stated),> 4 mM (inactive)
17,O=C1COc2ccccc2C(=O)N1,> 4 mM (inactive)
18,CCCCCCCCCCCCCc1ccco1,> 4 mM (inactive)
19,COc1cc2c(cc1OC)[C@@H]1C(=O)c3ccc4oc(C(C)C)cc4c3O[C@@H]1CO2,> 4 mM (inactive)
20,O=C(Nc1cccnc1)N1CCOCC1,> 4 mM (inactive)
21,O=C(O)C1CC(=O)N(Cc2ccc(F)cc2)C1 (configuration not stated),> 4 mM (inactive)
22,c1ccc(CNc2ncnc3nc[nH]c23)nc1,> 4 mM (inactive)
23,NC(=O)CNC(=O)c1ccc2ccccc2n1,> 4 mM (inactive)
24,O=C1C=C(O)c2ccccc2C1=O,> 4 mM (inactive)

row,SMILES,Kd
1,CC1CC[C@]2(NC1)O[C@H]1CC3C4CC[C@H]5C[C@@H](O)CC[C@]5(C)C4CC[C@]3(C)[C@H]1[C@@H]2C (some centres not stated),> 4 mM (inactive)
2,CC(C)CCCC(C)[C@H]1CCC2C3CC[C@H]4CC(=O)CC[C@]4(C)C3CC[C@@]21C (some centres not stated),> 4 mM (inactive)
3,Cc1cccc(N2C(=O)CCC2=O)n1,> 4 mM (inactive)
4,CNC(=O)Oc1ccc2c(c1)[C@]1(C)CCN(C)[C@@H]1N2C,> 4 mM (inactive)
5,CCOC(=O)Cn1cnc2c1c(=O)[nH]c(=O)n2C,> 4 mM (inactive)
6,COC(=O)c1c(OC)cc2c(c1C)Oc1c(Cl)c(O)c(Cl)c(C)c1C(=O)O2,> 4 mM (inactive)
7,CC1=C(C(N)=O)C(c2cccs2)C(C(N)=O)=C(C)N1,> 4 mM (inactive)
8,O=S1(=O)CCC(NC(=S)Nc2ccccc2)C1 (configuration not stated),> 4 mM (inactive)
9,NC(=O)CCn1cnc2ccccc21,> 4 mM (inactive)
10,NN1C(=O)/C(=C/c2ccc(O)c(O)c2)SC1=S,> 4 mM (inactive)
11,CC(=O)n1c(N)nc2ccccc21,> 4 mM (inactive)
12,CS(=O)(=O)c1ccc(N)cc1,> 4 mM (inactive)
13,Cc1noc(-c2ccccc2)c1C(=O)O,> 4 mM (inactive)
14,O=C1C(=O)N(CNc2ncccn2)c2ccccc21,> 4 mM (inactive)
15,CN1CCN(C(=O)c2ccco2)CC1,> 4 mM (inactive)
16,c1cnc(N2CCSCC2)nc1,> 4 mM (inactive)
17,Cn1nnc2cc(CO)ccc21,> 4 mM (inactive)
18,NC(=O)c1ccc(N2C(=O)CCC2=O)cc1Cl,> 4 mM (inactive)
19,CC1(C)NCCN2C(=O)CSC21 (configuration not stated),> 4 mM (inactive)
20,CCOC(=O)CNc1ncnc2c1nnn2CC,> 4 mM (inactive)
21,Cc1nc(NCc2ccco2)nc2c1C(=O)CC(C)C2 (configuration not stated),> 4 mM (inactive)
22,COc1ccc2ccc(=O)oc2c1CC=C(C)C,> 4 mM (inactive)
23,O=C1CSC(=Nc2ccccc2)N1,> 4 mM (inactive)
24,Nc1ncnc2c1ncn2C1C[C@H](O)[C@@H](CO)O1 (some centres not stated),> 4 mM (inactive)

row,SMILES,Kd
1,Cc1cc(C)n(CC(=O)NC2CCCCC2)n1,> 4 mM (inactive)
2,C=CCc1ccc(O)c(OC)c1,> 4 mM (inactive)
3,S=C(NCC1CCCO1)NC1CC1 (configuration not stated),> 4 mM (inactive)
4,COc1ccc(-c2oc3ccccc3c(=O)c2O)cc1OC,> 4 mM (inactive)
5,Cn1c(SCc2ccon2)nc2ccccc2c1=O,> 4 mM (inactive)
6,CN1CCC(NC(=O)c2ccccc2[N+](=O)[O-])CC1,> 4 mM (inactive)
7,COc1cnn(-c2ccccc2)c(=O)c1N(C)C,> 4 mM (inactive)
8,Cc1ccc(N2CCN(C(=O)c3ccccc3)CC2)c(C)c1,> 4 mM (inactive)
9,CCOC(=O)C1CCN(Cc2ccccc2)CC1,> 4 mM (inactive)
10,O=C(O)c1cccc2c1OCC2,> 4 mM (inactive)
11,CCOC(=O)c1ccc(F)cc1F,> 4 mM (inactive)
12,Cc1cc(NC(=O)Cc2c(F)cccc2Cl)no1,> 4 mM (inactive)
13,NC(=O)CS(=O)(=O)c1ccc2ccccc2c1,> 4 mM (inactive)
14,CCOc1ccc(NS(=O)(=O)N2CCCCC2)cc1,inactive
15,c1ccc2[nH]c(NCCN3CCOCC3)nc2c1,> 4 mM (inactive)
16,Cc1occc1C(=O)Nc1nccs1,> 4 mM (inactive)
17,O=C1c2ccncc2C(=O)N1CO,> 4 mM (inactive)
18,Cc1nc(-c2ccc(NS(C)(=O)=O)cc2)cs1,> 4 mM (inactive)
19,O=c1c(O)cc([C@H]2Oc3cc(O)cc(O)c3C[C@H]2O)cc2c([C@H]3Oc4cc(O)cc(O)c4C[C@H]3O)cc(O)c(O)c12,> 4 mM (inactive)
20,NC1=NC(=O)/C(=C/c2cccs2)S1,> 4 mM (inactive)
21,COc1ccc(S(=O)(=O)NCCO)cc1,> 4 mM (inactive)
22,CC1CCC2(OC1)OC1CC3C4CCC5C[C@@H](O)CCC5(C)C4=CCC3(C)C1[C@@H]2C (some centres not stated),> 4 mM (inactive)
23,N#Cc1cnc(N2CCCCC2)nc1N,> 4 mM (inactive)
24,O=C(Nc1ccc2c(c1)CCC2)c1cnccn1,> 4 mM (inactive)

row,SMILES,Kd
1,Cc1ccc(C(=O)NCCO)c(Cl)c1,> 4 mM (inactive)
2,Cn1ncc(CO)c1-c1ccccc1,> 4 mM (inactive)
3,Cc1cc(C(=O)N2CCN(S(C)(=O)=O)CC2)cs1,> 4 mM (inactive)
4,CCOC(=O)c1c(C)nc2sccn12,> 4 mM (inactive)
5,O=C(O)CN1C(=O)c2cccc([N+](=O)[O-])c2C1=O,> 4 mM (inactive)
6,CCN(CC)C(=O)c1n[nH]c(=O)c2ccccc12,> 4 mM (inactive)
7,CC1(C)C[C@@H]2C(=O)CC[C@H]3O[C@]3(C)CC[C@H]21,> 4 mM (inactive)
8,COc1cc(OC)c2c(c1Cl)OC1(C2=O)C(O)=CC(=O)CC1C (configuration not stated),> 4 mM (inactive)
9,c1cncc(Nc2nc(-c3cccnc3)cs2)c1,> 4 mM (inactive)
10,C(=Nn1cnnc1)c1ccccc1,> 4 mM (inactive)
11,O=C1CC(=O)N(c2ccccc2F)C(=S)N1,> 4 mM (inactive)
12,Nc1cccc(S(N)(=O)=O)c1,> 4 mM (inactive)
13,CC(=O)Nc1ccc2c(c1)C(=O)N(C1CCCCC1)C2=O,> 4 mM (inactive)
14,COC(=O)c1cc(-c2c[nH]c3ccccc23)n[nH]1,> 4 mM (inactive)
15,CC(=O)O[C@@H]1CC2C(C)(C)C(=O)C=C[C@]2(C)C2CC[C@]3(C)C(=CC(=O)O[C@H]3c3ccoc3)[C@@]21C (some centres not stated),> 4 mM (inactive)
16,CC(=O)Oc1c(-c2ccccc2)oc2c(CC=C(C)C)c3c(c(OC(C)=O)c2c1=O)C=CC(C)(C)O3,> 4 mM (inactive)
17,CC(=O)N1CCN(c2ccc(O)cc2)CC1,> 4 mM (inactive)
18,CC1(C)C(=O)C=C[C@@]2(C)C1C=C[C@]1(C)C2CC[C@@]2(C)[C@H](c3ccoc3)OC(=O)C3OC321 (some centres not stated),> 4 mM (inactive)
19,CN1CCN(C(=O)c2ccccc2N)CC1,> 4 mM (inactive)
20,Cc1nnc2sc(-c3ccco3)nn12,> 4 mM (inactive)
21,O=C(O)C1CCCCN1Cc1ccccc1 (configuration not stated),> 4 mM (inactive)
22,NS(=O)(=O)c1ccc(NC(=O)C(F)(F)F)cc1,> 4 mM (inactive)
23,CCc1c(C(=O)N2CCOCC2)csc1C,> 4 mM (inactive)
24,OC1CCNC2CCCCC12 (configuration not stated),> 4 mM (inactive)

row,SMILES,Kd
1,CCOC(=O)c1c(C)[nH]c2ccc(O)cc12,> 4 mM (inactive)
2,[O-][n+]1onc2c1CCc1c-2nn(-c2ccccc2)[n+]1[O-],> 4 mM (inactive)
3,OC[C@@H](O)[C@@H](O[C@@H]1O[C@H](CO)[C@@H](O)[C@H](O)[C@H]1O)[C@H](O)[C@@H](O)CO,> 4 mM (inactive)
4,N#CCSc1nnc2ccc3ccccc3n12,> 4 mM (inactive)
5,C=C1C(=O)OC2CC1C(OC(C)=O)C/C(C)=C/CC/C(C)=C/CC[C@]2(C)O (some centres not stated),> 4 mM (inactive)
6,Nc1nc2ccccc2n1CCN1CCCC1,> 4 mM (inactive)
7,CC(=O)Oc1cc(OC(C)=O)c2c(c1)O[C@H](c1ccc(OC(C)=O)c(OC(C)=O)c1)[C@H](OC(C)=O)C2,> 4 mM (inactive)
8,CC(C)(OC(=O)c1ccccc1)[C@@H]1Cc2cc3ccc(=O)oc3cc2O1,> 4 mM (inactive)
9,COc1cccc2onc(N)c12,> 4 mM (inactive)
10,COc1ccc(C(C)=O)c(O)c1,> 4 mM (inactive)
11,Cc1cc(=O)n2nc(-c3ccccc3)sc2n1,> 4 mM (inactive)
12,CC(C)CCCC(C)[C@H]1CCC2C3CC=C4C[C@@H](O)CC[C@]4(C)C3CC[C@@]21C (some centres not stated),> 4 mM (inactive)
13,CC1NC(C(=O)O)Cc2c1[nH]c1ccccc21 (configuration not stated),> 4 mM (inactive)
14,COc1ccc(Cl)cc1-c1nc(-c2ccncc2)no1,> 4 mM (inactive)
15,CCOC(=O)c1snnc1-c1ccccc1,> 4 mM (inactive)
16,COc1c(CC=C(C)C)c2c(c3oc(=O)c(-c4ccc(O)cc4)c(O)c13)C=CC(C)(C)O2,> 4 mM (inactive)
17,C#CCCCCCCCCCCCc1ccco1,> 4 mM (inactive)
18,Cc1cc(=O)[nH]c(N2CCCCC2)n1,> 4 mM (inactive)
19,Cc1nc2nc(Cc3ccccc3)[nH]n2c(=O)c1Cl,> 4 mM (inactive)
20,O=C(Nc1ccc(O)cc1)N1CCOCC1,> 4 mM (inactive)
21,OC1CCN(c2nccc(C(F)(F)F)n2)CC1,> 4 mM (inactive)
